What was measured:
[1] = tested on: MT-2 cells / K562/VCAM-1 cells (HTLV-I); experiment: Syncytium formation of HTLV-I-infected MT-2 cells with K562/VCAM-1 cells; format: cell-based; conditions: 3.4 micromoles per liter; higher concentrations not tested
Source text: MT-2 cells harbor the complete genome of human T cell lymphotropic virus type 1 (HTLV-I), and they transmit the virus to susceptible uninfected cells in cocultures. The transmission manifests itself as fusion of MT-2 cells with the uninfected cells, followed by syncytium formation. K562 cells transfected with VCAM-1, a ligand of the integrin VIA-4, were used as a fusion partner for MT-2 cells. MT-2 and K562/VCAM-1 cells were washed and resuspended in complete RPMI medium at a density of 2×10^6 /ml. MT2 cells were seeded into flat-bottom 96-well microtiter plates (100 microliters per well). Serial dilutions of Ajoene or of the disintegrin kistrin (final concentration) were introduced into the wells, and the plate was incubated for 30 min prior to addition of 100 microliters of K562/VCAM-1 cells. The plates were then incubated for 4 h before scoring syncytium formation.

[2] = tested on: lymphocyte infiltration into the pancreata; experiment: Spontaneous development of autoimmune diabetes in NOD mice (lymphocyte infiltration of pancreata); format: in vivo, Nonobese diabetic (NOD) mice; conditions: 0.3 mg/kg i.p. every other day, 9 weeks
Source text: (§1) Nonobese diabetic (NOD) mice are characterized by spontaneous development of insulitis (similar to human insulin-dependent diabetes) and sialoadenitis (similar to Sjogren's disease). The development of autoirmune inflammation in these animals involves several integrin receptors, including VLA-4, CR3, and LFA-1 (CD11a/CD18). Lymphocyte infiltration into the pancreata is mediated primarily by VIA-4, whereas the predominant mechanism of lymphocyte recruitment into the salivary glands involves LFA-1.
(§2) NOD mice (age, 3 to 4 weeks old; average body weight, 10 g) were divided into three groups. Experimental animals received intraperitoneal injections of disintegrins (0.3 mg/kg per animal every other day) for 9 weeks. Control mice were administered with the vehicle.
(§3) The mice were sacrificed and subjected to autopsy. The pancreata and salivary glands were removed and frozen (-70° C.). Thin sections (5 micrometer thick) of these organs were fixed in acetone, stained with hematoxylin and eosin, and evaluated microscopically for lymphocyte infiltration (Tables 6 and 7).

[3] = tested on: lymphocyte infiltration into the salivary glands; experiment: Spontaneous development of autoimmune sialoadenitis in NOD mice (lymphocyte infiltration of salivary glands); format: in vivo, Nonobese diabetic (NOD) mice; conditions: 0.3 mg/kg i.p. every other day, 9 weeks
Source text: as §1, §2, §3

[4] = pancreas, (+) 1-3 infiltrated islets
[5] = pancreas, (-) no infiltrating lymphocytes
[6] = (+) 1-3 small foci involving only one duct
[7] = (+++) 2 or more foci involving several ducts
[8] = (-) no infiltrating lymphocytes

Kistrin
inhibition of syncytium formation [1]: ~ 40% | development of large infiltrates in pancreatic islets [2]: completely prevented the development of large infiltrates | proportion of animals with mild infiltration of pancreatic islets [2]: increased the proportion of animals with mild infiltration of pancreatic islets | Number of mice with infiltration score (+) [2, 4]: 2 mice | Percentage of mice with infiltration score (+) [2, 4]: 40% | Number of mice with infiltration score (++) ([2]; pancreas, (++) 4 islets with moderate infiltration and/or 1-2 islets with large infiltrates): 0 mice | Number of mice with infiltration score (+++) ([2]; pancreas, (+++) 3 or more large infiltrates): 0 mice | Number of mice with infiltration score (-) [2, 5]: 3 mice | Percentage of mice with infiltration score (-) [2, 5]: 60% | Number of mice with infiltration score (+) [3, 6]: 2 mice | Percentage of mice with infiltration score (+) [3, 6]: 40.0% | Number of mice with infiltration score (++) ([3]; (++) small foci and/or 1 large focus involving several ducts): 0 mice | Number of mice with infiltration score (+++) [3, 7]: 1 mice | Percentage of mice with infiltration score (+++) [3, 7]: 20.0% | Number of mice with infiltration score (-) [3, 8]: 2 mice | Percentage of mice with infiltration score (-) [3, 8]: 40.0%

From patent publication US6177475A, “Methods of using integrin modulators for treatment of inflammation” (priority 1997, dated 2001)
